The text below walks through data of patent US20130143958A1, “DOSAGE UNIT COMPRISING A PROSTAGLANDIN ANALOG FOR TREATING CONSTIPATION” (priority 2001, published 2013).

SMILES strings stand for the structures.

For series [1] the following is noted: cited from earlier work; for effect on the intestine: administered in pharmacological doses.
The test system of series [2] is patients. The series can be described thus: Phase II dosage study in constipation, 21 days. It is filed as in vivo, human. The conditions noted are these: for daily average number of spontaneous bowel movements vs placebo: Week 1 and Week 2; for stool consistency: all post-baseline time points. The procedure: All randomized patients who took at least one dose of double-blind study medication constituted the safety evaluable (SE) population. These patients were included in the demographic data, baseline characteristic data and safety analysis. For efficacy, the same data set was used and is referred to as the intent-to-treat (ITT) population. […] Key efficacy analyses were also performed on the per-protocol (PP) population, which excluded all data for the affected weeks for protocol violators. Patients whose treatments were adjusted were analyzed in their original treatment group (i.e., as randomized).
Eligible patients were treated with either placebo or total daily doses of 24 μg, 48 μg or 72 μg of Compound A for 21 days. One placebo or Compound A capsule was taken 3 times each day (AM, Noon, and PM). Compound A was administered as 24 μg oral capsules. Patients assigned to receive the total daily 24 μg Compound A dose took one Compound A capsule in the AM and one matching placebo capsule both at Noon and in the PM; patients assigned to receive the total daily 48 μg Compound A dose took one Compound A capsule in both the AM and PM and one matching placebo capsule at Noon; patients assigned to receive the total daily 72 μg Compound A dose took one Compound A capsule in the AM, at Noon, and in the PM.

Series [3] deals with volunteers. The series can be described thus: Phase Ib multiple rising dose study (TID for 6 days), safety, tolerance and bowel movement frequency. It is filed as in vivo, human. The note with it: for total bowel movements in group: placebo 31. The procedure:
(§1) The safety and tolerance of oral Compound A (13,14-dihydro-15-keto-16,16-difluoro-PGE1) was evaluated in 16 volunteers in a single-dose Phase I study (Phase Ia) at rising per-person doses of 6 μg, 12 μg, 24 μg, 48 μg, 72 μg, and 96 μg compared and in 24 volunteers in a multiple-dose Phase I study (Phase Ib) at rising per-person doses of 24 μg, 30 μg, and 36 μg of Compound A administered three times a day (TID) (i.e., total daily per person doses of 72 μg, 90 μg and 108 μg) for 6 days.
Compound A was determined to be optimal when administered at the 24 μg dose TID and determined to be safe and tolerable up to 36 μg when administered TID for at least 6 days.
Bowel movement frequency was assessed in this study as well. […] A total of 193 bowel movements were experienced in this study. Of these, 31 occurred in the placebo group, 70 in the 24 μg group, 51 in the 30 μg group and 41 in the 36 μg group.

The test system of series [4] is volunteers. The series can be described thus: Phase Ia single rising dose study, safety, tolerance and bowel movement frequency. It is filed as in vivo, human. The procedure:
as §1
96 μg was the maximum tolerated single oral Compound A dose. […] These occurred in 13 of the 17 volunteers and all resolved. Volunteers receiving placebo experienced five AEs. Most AEs could be categorized as either responses or events commonly reported in Phase I clinical trials (such as headache and lightheadedness) or expected pharmacodynamic responses of Compound A (such as loose bowel movements, diarrhea and abdominal cramping).
Bowel movement frequency was assessed during the 24 hour period after dosing for each dose-level group. Bowel movements were experienced in the placebo and in all active dose groups. […] Compared to only three of twelve subjects experiencing bowel movements in the placebo group, all six subjects in the 96 μg Compound A group experienced bowel movements. Furthermore, the average number of bowel movements per subject in this Compound A group (1.5) was three times greater than the average number of bowel movements per subject in the placebo group (0.5).

For `CCCCC(C)(O)C/C=C/[C@H]1[C@H](O)CC(=O)[C@@H]1CCCCCCC(=O)OC` (mixture of isomers) [misoprostol], the “most commonly reported side effect” value in series [1] (in vivo) was “diarrhea”.

For the compound `CCCCC(F)(F)C(=O)CCC1C(O)CC(=O)C1CCCCCCC(=O)O` (centres unmarked) [Compound A, 13,14-dihydro-15-keto-16,16-difluoro-PGE1], in series [2] (48 μg total daily dose), the “proportion of patients who had a spontaneous bowel movement on Day 1” value was “statistically significant increase”, the “daily average number of spontaneous bowel movements vs placebo” value is given as “statistically significant increases” and the stool consistency result is reported as “Statistically significant improvements”. Further, in series [2] (48 μg total daily dose, Week 3), the constipation severity result is “Statistically significant improvements”. Moreover, in series [2] (72 μg total daily dose), the “proportion of patients who had a spontaneous bowel movement on Day 1” value is “statistically significant increase”, the “daily average number of spontaneous bowel movements vs placebo” value is “statistically significant increases” and the stool consistency entry was “Statistically significant improvements”. For the same compound, the constipation severity entry in series [2] (72 μg total daily dose, Weeks 2 and 3) is listed as “Statistically significant improvements”. The compound further gave a minimum effective dose in series [2] (based on statistical analyses) of 48 μg per day. In addition, the “overall efficacy, relief of constipation” value in series [2] (doses as low as 24 μg per day) is on record as “tended to relieve constipation”. Also, in series [3] (24 μg group TID), the “total bowel movements in group” value came to 70. Further, the “total bowel movements in group” value in series [3] (30 μg group TID) is given as 51. The “maximum tolerated multiple dose as total daily dose” value in series [3] (36 μg TID) came to 108 µg. Also, the “total bowel movements in group” value in series [3] (36 μg group TID) is 41. Further, the “best tolerated effective dose” value in series [3] (TID, healthy volunteers) was 24 µg. The optimal dose in series [3] (administered TID) is 24 µg. In series [3] (in vivo), the “central nervous system or physical abnormalities” value is “no central nervous system or physical abnormalities observed”; the “main dose limiting side effect” value is “nausea”; the “safe and tolerable dose” value is recorded as “up to 36 μg”; the “vital signs and ECG measurements” value is recorded as “normal”. Besides, in series [3] (oral, taken TID, 6 days), the “maximum tolerated multiple per-person dose” value was determined as 36 µg. Moreover, the “average number of bowel movements per subject relative to placebo group” value in series [4] (96 μg single dose, 24 hour period after dosing) is listed as “three”. Also, in series [4] (96 μg single dose, 24 hour period after dosing, placebo 0.5), the “average number of bowel movements per subject” value stood at 1.5. Moreover, the “subjects experiencing bowel movements” value in series [4] (96 μg single dose, 24 hour period after dosing, placebo three of twelve) is “all six”. The “bowel movements compared to placebo” value in series [4] (24 hour period after dosing) was “trend for increased bowel movements”. Also, in series [4] (in vivo), the “total number of AEs” value was 49 and the “volunteers with AEs” value was 13 of the 17. Further, in series [4] (in vivo, po), the dose-limiting toxicity result is “nausea”. Besides, in series [4] (single oral dose), the “maximum tolerated single per-person dose” value was 96 µg.

In the case of `CCCCC[C@H](O)/C=C/[C@H]1[C@H](O)CC(=O)[C@@H]1C/C=C\CCCC(=O)O` [PGE2], in series [1], the “effect on the intestine” value is “stimulate intestinal transit and to cause diarrhea”.

Regarding `CCCCC[C@H](O)/C=C/[C@@H]1[C@@H](C/C=C\CCCC(=O)O)[C@@H](O)C[C@H]1O` [PGF2α], in series [1], the “effect on the intestine” value is “stimulate intestinal transit and to cause diarrhea”.
